Experimental data from patent US8993718B2, “Methods and compositions for detecting and modulating O-glycosylation” (President and Fellows of Harvard College, priority 2007, dated 2015).
Entries after “also recorded” stand apart in the source; their conditions may differ. Non-standard residues stand in square brackets, D forms with d. Primed or numbered codes have the meaning given here. No end group written: not given here. *: point of attachment. FITC = O=C1OC2(c3ccc(O)cc3Oc3cc(O)ccc32)c2ccc(NC(=S)*)cc21; Aha′ = not defined here

How the values were obtained:
Assay type in all cases: biochemical
ppGalNAcTs = assay: Protease protection assay for ppGalNAcTs (general)
Protocol: (§1) There are multiple isoforms of the enzyme polypeptide N-acetylgalactosaminyltranferases (ppGalNAcTs). Activity of ppGalNAcTs are illustrated in FIG. 14. Using assay methods as described above, peptide substrates for ppGalNAcTs were prepared and used to assay to identify modulators of ppGalNAcTs activity. Peptide substrates EPGPTEAPK (SEQ ID NO:25) and EDAVTPGPK (SEQ ID NO:26) were prepared (see FIG. 15) and utilized to assay for modulators of the enzymes. Each peptide substrate include a proteinase K cleavage site. The identified compound SEQ ID NO:25 is a general substrate for ppGalNAcTs and identified compound SEQ ID NO:26 is a selective substrate for the enzyme ppGalNAcT1. Assays were run and alterations in the rate and/or amount of cleavage by proteinase K was determined. […] The difference in cleavage permitted use of the assay to identify compounds that inhibit glycosylation of the substrate by ppGalNAcTs. Additional inhibitory compounds identified using the assay include Compound 24 and Compound 27 (see Table 1).

ppGalNAcT2 = ppGalNAcT2 (Homo sapiens, UniProt Q10471); assay: Protease protection assay for ppGalNAcT2
Protocol: as §1
(§2) It was determined that the assay could also be used to identify isoform selective inhibitors. […] The presence of the inhibitor disrupted crystal growth of the ppGalNAcT2.

ppGalNAcT1 = target: T1, ppGalNAcT1 (Homo sapiens, UniProt Q10472); assay: Protease protection assay for ppGalNAcT1
T1 sequence (Q10472 1-559): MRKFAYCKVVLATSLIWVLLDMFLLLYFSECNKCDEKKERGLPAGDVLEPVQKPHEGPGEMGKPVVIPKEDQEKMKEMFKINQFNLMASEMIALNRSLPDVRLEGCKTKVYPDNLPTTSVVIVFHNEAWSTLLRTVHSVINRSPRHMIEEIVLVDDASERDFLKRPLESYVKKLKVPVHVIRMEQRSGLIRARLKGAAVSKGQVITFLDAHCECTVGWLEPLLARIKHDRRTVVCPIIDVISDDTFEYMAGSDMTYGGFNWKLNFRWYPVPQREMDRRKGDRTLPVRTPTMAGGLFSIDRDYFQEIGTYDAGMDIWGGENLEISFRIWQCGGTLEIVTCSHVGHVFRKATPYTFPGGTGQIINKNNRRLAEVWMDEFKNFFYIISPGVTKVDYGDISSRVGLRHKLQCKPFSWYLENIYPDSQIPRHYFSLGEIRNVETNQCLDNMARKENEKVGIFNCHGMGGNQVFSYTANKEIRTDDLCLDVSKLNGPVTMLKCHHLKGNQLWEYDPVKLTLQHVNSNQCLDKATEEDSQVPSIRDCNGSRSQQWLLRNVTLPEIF
Protocol: as §1, §2

[1] = target: T2, O-Linked N-acetylglucosaminyltransferase (OGT) (Homo sapiens, UniProt O15294); assay: Glycosylation of CK2-derived polypeptide substrates by OGT, quantified by LC/MS; settings: OGT, LC/MS peak integration at 445 nm; relative to wt polypeptide 4.1
T2 sequence (O15294 1-1046): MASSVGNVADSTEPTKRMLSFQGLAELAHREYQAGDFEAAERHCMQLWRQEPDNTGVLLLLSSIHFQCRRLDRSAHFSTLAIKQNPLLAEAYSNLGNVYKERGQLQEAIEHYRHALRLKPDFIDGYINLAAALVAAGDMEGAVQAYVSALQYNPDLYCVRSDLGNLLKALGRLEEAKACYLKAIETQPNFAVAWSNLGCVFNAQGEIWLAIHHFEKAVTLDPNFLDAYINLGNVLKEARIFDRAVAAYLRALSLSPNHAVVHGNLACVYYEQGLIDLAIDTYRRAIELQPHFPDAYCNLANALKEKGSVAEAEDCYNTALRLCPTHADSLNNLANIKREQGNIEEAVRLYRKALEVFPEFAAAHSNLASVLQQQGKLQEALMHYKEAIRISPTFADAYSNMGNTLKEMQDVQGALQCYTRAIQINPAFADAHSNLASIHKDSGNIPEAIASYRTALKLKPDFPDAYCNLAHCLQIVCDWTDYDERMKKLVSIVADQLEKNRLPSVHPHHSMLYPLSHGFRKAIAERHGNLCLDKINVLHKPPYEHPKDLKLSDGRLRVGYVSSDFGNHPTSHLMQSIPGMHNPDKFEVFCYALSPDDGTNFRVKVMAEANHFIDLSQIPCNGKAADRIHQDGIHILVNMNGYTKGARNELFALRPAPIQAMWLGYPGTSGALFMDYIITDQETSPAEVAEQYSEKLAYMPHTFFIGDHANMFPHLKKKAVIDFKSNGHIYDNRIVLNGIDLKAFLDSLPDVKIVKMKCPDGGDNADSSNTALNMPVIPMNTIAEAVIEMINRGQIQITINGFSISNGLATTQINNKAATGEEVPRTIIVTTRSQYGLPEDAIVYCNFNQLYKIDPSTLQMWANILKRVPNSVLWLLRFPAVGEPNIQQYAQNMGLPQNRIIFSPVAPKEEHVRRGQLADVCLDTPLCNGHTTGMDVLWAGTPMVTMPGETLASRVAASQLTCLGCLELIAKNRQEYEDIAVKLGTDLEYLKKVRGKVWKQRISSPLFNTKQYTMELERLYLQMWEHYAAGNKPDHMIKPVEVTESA
Protocol: To address the first requirement, a panel of polypeptides was synthesized based on a truncated version of the CKII polypeptide [CKII peptide PGGSTPVSSNAMM (SEQ ID NO:20)]. The polypeptide was modified from the native sequence in several ways. First, a fluorescein was installed on the N-terminus during synthesis. Second, a lysine was added to the C-terminus so that a second dye or quencher could be installed by reaction with the appropriate N-hydroxysuccinimidyl ester. These modifications allowed two different FRET approaches. The first approach required the installation of a coumarin derivative on the polypeptide. The second required installation of a quencher molecule, which measured total fluorescence intensity. (See Examples 2 and 3). Finally, the residues on either side of the glycosylated serine of the truncated CK2 polypeptide were changed to phenylalanine, leucine or arginine to introduce proteolytic cleavage sites for common proteases (such as trypsin, chymotrypsin and thermolysin) that were not present in the native sequence. It was reasoned that cleavage adjacent to the glycosylation site would yield the largest difference in the rate of proteolysis between glycosylated and native polypeptides. This series of polypeptides was synthesized and screened for OGT activity using by LC/MS. Peak integration (measured at 445 nm) was used to quantitative products and reactants and mass spectrometry was used to confirm peak identity. The results are presented in Table 2 and some of the peptides (peptide 4.1, 4.4, and 4.5 top to bottom) are illustrated in FIG. 2.
All polypeptides were purchased from Tufts University core facility (Boston, Mass.). The mass of crude product was verified and the polypeptides were labeled under the following conditions: Polypeptide was dissolved in 250 mM NaHCO3 buffer, pH 8.2 at a 5 mM concentration and the appropriate NHS-Ester (0.5 eq) was dissolved in DMSO (a volume of 1/10 of the aqueous buffer was used). The DMSO solution was quickly added to the peptide and the reaction proceeded at room temperature for 30 minutes. This was repeated 2 more times (four more times for polypeptide 4.10). The reaction was monitored by LC/MS. LCMS conditions for polypeptides 4.1-4.8—Agilent Eclipse 5 μm XD8-C8 column, 0→100% CH3CN+0.1% formic acid over 20 minutes. LCMS conditions for polypeptides 4.9-4.10—Agilent Eclipse 5 μm XD8-C8 column, 0→100% CH3CN+0.1% NH4OH over 20 minutes. Each polypeptide was purified by preparative HPLC. Conditions for polypeptides 4.1-4.8 were: —Phenomonex Luna C18 5 μm column, 0→100% CH3CN+0.1% TFA over 40 minutes. Conditions for polypeptides 4.9-4.10 were: —Phenomonex Luna C18 5 μm column, 0→100% CH3CN+0.1% NH4OH over 40 minutes. Products were confirmed by LC/MS. Preparative Glycosylation of Labeled Polypeptides: Purified FRET labeled polypeptides were added (20-50 μM final concentration) to assay buffer (50 mM Tris, 20 mM CaCl2, 0.05% Tween-20, 0.05% NP-40, pH=7.8), 200 μM UDP-GlcNAc, 0.05 units of alkaline phosphatase, and 5 μM OGT. Reactions were monitored using LCMS: conditions for polypeptides 4.1-4.8—Agilent Eclipse 5 μm XD8-C8 column, 10→60% CH3CN+0.1% formic acid over 20 minutes. LCMS conditions for polypeptides 4.9-4.10—Agilent Eclipse 5 μm XD8-C8 column, 10→60% CH3CN+0.1% NH4OH over 20 minutes, and when complete were purified using the same column and conditions. Polypeptides 4.1-4.8 were quantitated by absorption at 492 nm using an extinction coefficient of 86,000 cm^−1M^−1; polypeptide 4.9 was quantitated by absorption at 530 nm using an extinction coefficient of 26,000 cm^−1M^−1; polypeptide 4.10 was quantitated by absorption at 530 nm using an extinction coefficient of 52,000 cm^−1M^−1. Fluorescence Resonance Energy Transfer (FRET)-Peptide Approach #1

Chain of ppGalNAcT2 (Q10471 whole entry): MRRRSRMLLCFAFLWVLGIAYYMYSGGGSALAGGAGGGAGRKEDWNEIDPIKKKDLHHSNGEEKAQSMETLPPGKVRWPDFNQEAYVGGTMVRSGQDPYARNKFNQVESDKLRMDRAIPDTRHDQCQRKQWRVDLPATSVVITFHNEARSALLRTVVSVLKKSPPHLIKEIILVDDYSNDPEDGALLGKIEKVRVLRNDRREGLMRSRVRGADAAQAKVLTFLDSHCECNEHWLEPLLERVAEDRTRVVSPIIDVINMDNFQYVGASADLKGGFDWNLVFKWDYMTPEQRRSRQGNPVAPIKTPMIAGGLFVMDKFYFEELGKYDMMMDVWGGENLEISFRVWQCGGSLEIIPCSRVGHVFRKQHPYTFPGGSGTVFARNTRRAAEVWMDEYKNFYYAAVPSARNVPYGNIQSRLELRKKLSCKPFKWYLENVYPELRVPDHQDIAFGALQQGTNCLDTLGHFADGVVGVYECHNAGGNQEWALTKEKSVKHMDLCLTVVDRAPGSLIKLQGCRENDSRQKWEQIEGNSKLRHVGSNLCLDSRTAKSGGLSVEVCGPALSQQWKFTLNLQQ

## O=C1NC(=S)NC(=O)C1=C/C=C\c1ccco1 [Compound 26]
ppGalNAcTs
  inhibition of ppGalNAcTs: inhibitors

## O=C1NC(=O)N(Cc2ccco2)C(=O)/C1=C\c1ccco1 [Compound 25]
ppGalNAcT2; FIG. 18B
  isoform selectivity ppGalNAcT2 vs ppGalNAcT1: more selective inhibitor for ppGalNAcT2 than for ppGalNAcT1; also recorded: more selectively inhibits ppGalNAcT2 than ppGalNAcT1

## O=C(O)CCCN1C(=O)C(O)=C(C(=O)/C=C\c2ccccc2)C1c1ccccc1 (stereo not shown) [Compound 24]
ppGalNAcTs
  inhibition of ppGalNAcTs: inhibitory; also recorded: inhibitors
ppGalNAcT1
  inhibition of ppGalNAcT1 (% glycosylation, FIG. 18): inhibits
ppGalNAcT2
  inhibition of ppGalNAcT2 (% glycosylation, FIG. 18): inhibits

## FITC(Aha)STPVSFANMK ({FITC}-[Aha′]STPVSFANMK; reading uncertain; also: printed as FITC(Aha)STPVSFANMK) [Polypeptide 4.4]
[1]
  Relative rate of glycosylation: 0.4

## O=C(O)CCCCCn1c(SCC(=O)c2ccc(O)c(O)c2)nc2ccsc2c1=O [Compound 27]
ppGalNAcTs
  inhibition of ppGalNAcTs: inhibitory; also recorded: inhibitors
